One may read the IC50 as the concentration needed to halve the response being measured. Higher therefore signals weaker potency.

Structures are written as SMILES. Where a name gives a salt, the structure may show the parent alone.

Assay [1] concerns the target T1, FAAH (Homo sapiens, UniProt O00519).
T1 sequence (O00519 1-579): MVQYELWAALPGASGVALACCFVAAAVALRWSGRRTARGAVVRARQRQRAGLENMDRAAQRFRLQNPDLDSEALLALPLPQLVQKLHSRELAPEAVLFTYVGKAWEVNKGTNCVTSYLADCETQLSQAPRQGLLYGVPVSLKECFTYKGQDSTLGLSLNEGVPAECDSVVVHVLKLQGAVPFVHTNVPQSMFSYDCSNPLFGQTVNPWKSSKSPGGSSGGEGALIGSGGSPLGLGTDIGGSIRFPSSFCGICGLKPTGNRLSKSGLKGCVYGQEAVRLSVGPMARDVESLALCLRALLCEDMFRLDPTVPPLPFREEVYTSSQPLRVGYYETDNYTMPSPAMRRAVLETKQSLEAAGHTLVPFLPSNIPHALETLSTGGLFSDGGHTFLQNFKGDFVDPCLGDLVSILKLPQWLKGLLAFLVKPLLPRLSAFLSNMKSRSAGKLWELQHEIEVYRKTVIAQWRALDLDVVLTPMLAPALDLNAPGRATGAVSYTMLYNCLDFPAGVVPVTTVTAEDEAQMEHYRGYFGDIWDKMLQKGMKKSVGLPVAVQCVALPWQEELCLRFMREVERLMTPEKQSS
In words: Assay Method 1: FAAH assay, 3H-anandamide hydrolysis in homogenate of T84 cells or SK-N-MC cells transfected with human FAAH. Particulars: average of results, > = solubility limit or highest concentration tested. In kind it is biochemical. On the procedure:
A. Transfection of Cells with Human FAAH
(§1) A 10-cm tissue culture dish with a confluent monolayer of SK—N-MC cells was split 2 days (d) prior to transfection. Using sterile technique, the media was removed and the cells were detached from the dish by the addition of trypsin. One fifth of the cells were then placed onto a new 10-cm dish. Cells were grown in a 37° C. incubator with 5% CO2 in Minimal Essential Media Eagle with 10% Fetal Bovine Serum. After 2 d, cells were approximately 80% confluent. These cells were removed from the dish with trypsin and pelleted in a clinical centrifuge. The pellet was re-suspended in 400 μL complete media and transferred to an electroporation cuvette with a 0.4 cm gap between the electrodes. Supercoiled human FAAH cDNA (1 μg) was added to the cells and mixed. The voltage for the electroporation was set at 0.25 kV, and the capacitance was set at 960 μF. After electroporation, the cells were diluted into complete media (10 mL) and plated onto four 10-cm dishes. Because of the variability in the efficiency of electroporation, four different concentrations of cells were plated. The ratios used were 1:20, 1:10, and 1:5, with the remainder of the cells being added to the fourth dish. The cells were allowed to recover for 24 h before adding the selection media (complete media with 600 μg/mL G418). After 10 d, dishes were analyzed for surviving colonies of cells. Dishes with well-isolated colonies were used. Cells from individual colonies were isolated and tested.
(§2) T84 frozen cell pellets or transfected SK—N-MC cells (contents of 1×15 cm culture dishes) were homogenized in 50 mL of FAAH assay buffer (125 mM Tris, 1 mM EDTA, 0.2% Glycerol, 0.02% Triton X-100, 0.4 mM Hepes, pH 9). The assay mixture consisted of 50 μL of the cell homogenate, 10 μL of the test compound, and 40 μL of anandamide [1-^3H-ethanolamine] (^3H-AEA, Perkin-Elmer, 10.3 Ci/mmol), which was added last, for a final tracer concentration of 80 nM. The reaction mixture was incubated at rt for 1 h. During the incubation, 96-well Multiscreen filter plates (catalog number MAFCNOB50; Millipore, Bedford, Mass., USA) were loaded with 25 μL of activated charcoal (Multiscreen column loader, catalog number MACL09625, Millipore) and washed once with 100 μL of MeOH. Also during the incubation, 96-well DYNEX MicroLite plates (catalog number NL510410) were loaded with 100 μL of MicroScint40 (catalog number 6013641, Packard Bioscience, Meriden, Conn., USA). After the 1 h incubation, 60 μL of the reaction mixture were transferred to the charcoal plates, which were then assembled on top of the DYNEX plates using Centrifuge Alignment Frames (catalog number MACF09604, Millipore). The unbound labeled ethanolamine was centrifuged through to the bottom plate (5 min at 2000 rpm), which was preloaded with the scintillant, as described above. The plates were sealed and left at rt for 1 h before counting on a Hewlett Packard TopCount.
(§3) Compounds were tested in free base, hydrochloride salt, and/or trifluoroacetic acid salt forms.

Assay [2] deals with T2, rat FAAH (Rattus norvegicus, UniProt P97612).
T2 sequence (P97612 1-579): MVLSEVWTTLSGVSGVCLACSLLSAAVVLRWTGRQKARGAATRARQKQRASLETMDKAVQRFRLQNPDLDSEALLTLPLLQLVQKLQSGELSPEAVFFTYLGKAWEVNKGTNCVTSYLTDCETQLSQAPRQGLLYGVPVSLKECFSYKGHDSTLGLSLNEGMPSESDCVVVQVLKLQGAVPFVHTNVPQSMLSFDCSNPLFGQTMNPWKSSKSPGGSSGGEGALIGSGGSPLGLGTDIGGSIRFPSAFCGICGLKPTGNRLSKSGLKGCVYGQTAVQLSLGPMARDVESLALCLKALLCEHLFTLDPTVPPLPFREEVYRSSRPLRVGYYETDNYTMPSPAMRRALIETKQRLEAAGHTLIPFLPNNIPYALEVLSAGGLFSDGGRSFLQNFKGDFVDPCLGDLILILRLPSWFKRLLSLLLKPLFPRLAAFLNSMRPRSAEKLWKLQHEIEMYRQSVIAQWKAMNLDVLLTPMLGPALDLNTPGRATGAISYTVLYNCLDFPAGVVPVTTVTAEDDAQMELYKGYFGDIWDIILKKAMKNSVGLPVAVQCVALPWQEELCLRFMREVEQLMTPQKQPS
In words: Assay Method 2: FAAH assay, 3H-anandamide hydrolysis in homogenate of SK-N-MC cells transfected with rat FAAH. In kind it is biochemical. The settings on record: average of results, > = solubility limit or highest concentration tested. On the procedure: A. Transfection of Cells with Rat FAAH
as §1, with “rat” for “human”
as §2, §3

`O=C(Nc1ccc(Cl)nn1)N1CCC(Cc2cccc(C(F)(F)F)c2)CC1` [Example 25, 4-(3-Trifluoromethyl-benzyl)-piperidine-1-carboxylic acid (6-chloro-pyridazin-3-yl)-amide]: the IC50 in assay [1] and in assay [2] was 1300 nM each time.
As for `O=C(Nc1ccon1)N1CCC(Cc2cccc(C(F)(F)F)c2)CC1` [Example 26, 4-(3-Trifluoromethyl-benzyl)-piperidine-1-carboxylic acid isoxazol-3-ylamide], the IC50 in assay [1] was 5000 nM; in assay [2], 1000 nM.
As to `O=C(Nc1noc2ccccc12)N1CCC(Cc2cccc(C(F)(F)F)c2)CC1` [Example 27, 4-(3-Trifluoromethyl-benzyl)-piperidine-1-carboxylic acid benzo[d]isoxazol-3-ylamide], the values for the IC50 in assay [1] and in assay [2] were 77 nM and 47 nM, respectively.
Take `O=C(Nc1noc2ccccc12)N1CCN(Cc2cccc(Oc3ccc(F)c(C(F)(F)F)c3)c2)CC1` [Example 28, 4-[3-(4-Fluoro-3-trifluoromethyl-phenoxy)-benzyl]-piperazine-1-carboxylic acid benzo[d]isoxazol-3-ylamide trifluoroacetic acid salt]: the IC50 in assay [1] was 95 nM; in assay [2], 17 nM.
For the molecule `O=C(Nc1noc2ccccc12)N1CCN(Cc2cccc(Oc3cccc(OC(F)(F)F)c3)c2)CC1` [Example 29, 4-[3-(3-Trifluoromethoxy-phenoxy)-benzyl]-piperazine-1-carboxylic acid benzo[d]isoxazol-3-ylamide trifluoroacetic acid salt], the results for the IC50 in assay [1] and in assay [2] were 16 nM and 23 nM, respectively.
In the case of `O=C(Nc1noc2ccccc12)N1CCN(Cc2cccc(Oc3ccc(OC(F)(F)F)cc3)c2)CC1` [Example 30, 4-[3-(4-Trifluoromethoxy-phenoxy)-benzyl]-piperazine-1-carboxylic acid benzo[d]isoxazol-3-ylamide trifluoroacetic acid salt], the IC50 was 0.1 nM in assay [1] and 14 nM in assay [2].
With `O=C(Nc1noc2ccccc12)N1CCN(Cc2cccc(Oc3cccc(Br)c3)c2)CC1` [Example 31, 4-[3-(3-Bromo-phenoxy)-benzyl]-piperazine-1-carboxylic acid benzo[d]isoxazol-3-ylamide trifluoroacetic acid salt], the IC50 worked out at 22 nM in assay [1] and 17 nM in assay [2].
On to `O=C(Nc1noc2ccccc12)N1CCN(Cc2cccc(Oc3ccc(Br)cc3)c2)CC1` [Example 32, 4-[3-(4-Bromo-phenoxy)-benzyl]-piperazine-1-carboxylic acid benzo[d]isoxazol-3-ylamide trifluoroacetic acid salt], for which the IC50 turned out to be 3 nM in assay [1] and 4 nM in assay [2].
As for `O=C(Nc1noc2ccccc12)N1CCN(Cc2cccc(Oc3ccc(F)c(F)c3)c2)CC1` [Example 33, 4-[3-(3,4-Difluoro-phenoxy)-benzyl]-piperazine-1-carboxylic acid benzo[d]isoxazol-3-ylamide], the IC50 is 52 nM in assay [1] and 30 nM in assay [2].
Consider `O=C(Nc1noc2ccccc12)N1CCN(Cc2cccc(Oc3cc(F)cc(F)c3)c2)CC1` [Example 34, 4-[3-(3,5-Difluoro-phenoxy)-benzyl]-piperazine-1-carboxylic acid benzo[d]isoxazol-3-ylamide trifluoroacetic acid salt], for which the values for the IC50 in assay [1] and in assay [2] were 152 nM and 190 nM, respectively.
Consider `O=C(Nc1noc2ccccc12)N1CCN(Cc2cccc(Oc3ccc(OCC(F)(F)F)cc3)c2)CC1` [Example 35, 4-{3-[4-(2,2,2-Trifluoro-ethoxy)-phenoxy]-benzyl}-piperazine-1-carboxylic acid benzo[d]isoxazol-3-ylamide], for which the IC50 came to 5 nM in assay [1] and 20 nM in assay [2].
For `O=C(Nc1cccc2nsnc12)N1CCN(Cc2cccc(Oc3ccc(Cl)c(Cl)c3)c2)CC1` [Example 38, 4-[3-(3,4-Dichloro-phenoxy)-benzyl]-piperazine-1-carboxylic acid benzo[1,2,5]thiadiazol-4-ylamide trifluoroacetic acid salt], the IC50 in assay [1] is 70 nM; in assay [2], 9 nM.
As to `O=C(Nc1cccc2nsnc12)N1CCN(Cc2cccc(Oc3cc(Cl)cc(Cl)c3)c2)CC1` [Example 39, 4-[3-(3,5-Dichloro-phenoxy)-benzyl]-piperazine-1-carboxylic acid benzo[1,2,5]thiadiazol-4-ylamide trifluoroacetic acid salt], the IC50 in assay [1] was determined as 310 nM; in assay [2], 573 nM.
As to `O=C(Nc1cccc2nsnc12)N1CCN(Cc2cccc(Oc3cccc(C(F)(F)F)c3)c2)CC1` [Example 40, 4-[3-(3-Trifluoromethyl-phenoxy)-benzyl]-piperazine-1-carboxylic acid benzo[1,2,5]thiadiazol-4-ylamide trifluoroacetic acid salt], the IC50 in assay [1] turned out to be 156 nM; in assay [2], 15 nM.
In the same order, the values of `O=C(Nc1cccc2nsnc12)N1CCN(Cc2cccc(OC(F)(F)F)c2)CC1` [Example 41, 4-(3-Trifluoromethoxy-benzyl)-piperazine-1-carboxylic acid benzo[1,2,5]thiadiazol-4-ylamide trifluoroacetic acid salt] are 48 nM and 141 nM.

The values above are taken from patent US20090062294A1, “HETEROARYL-SUBSTITUTED UREA MODULATORS OF FATTY ACID AMIDE HYDROLASE” (priority 2007, published 2009).
